Experimental findings from ChEMBL document CHEMBL1201862, “PubChem BioAssay data set” (2004) are described below.

The source made the active and inactive calls.

As a reminder, the IC50 is the concentration that gives 50% inhibition. Broadly, the EC50 is the concentration needed to bring the measured effect to its halfway point. The term AC50 denotes the concentration at which the activity in the assay is half-maximal.

The target of experiment [1] is T1, Type-1 angiotensin II receptor (Homo sapiens, UniProt P30556).
T1 sequence (P30556 whole entry): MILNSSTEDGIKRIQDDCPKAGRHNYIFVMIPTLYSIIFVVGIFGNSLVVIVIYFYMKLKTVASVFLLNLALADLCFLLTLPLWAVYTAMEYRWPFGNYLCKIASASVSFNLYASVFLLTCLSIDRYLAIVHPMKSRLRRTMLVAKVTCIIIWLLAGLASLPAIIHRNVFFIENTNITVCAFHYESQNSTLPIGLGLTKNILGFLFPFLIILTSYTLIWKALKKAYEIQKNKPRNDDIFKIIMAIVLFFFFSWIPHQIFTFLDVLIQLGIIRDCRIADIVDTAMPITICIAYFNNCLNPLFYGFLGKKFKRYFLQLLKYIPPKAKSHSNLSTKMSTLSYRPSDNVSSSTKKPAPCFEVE
Nature of the experiment: AT1 receptor antagonists, dose response, selectivity assay for APJ receptor antagonist project, cell-based, uHTS hits (AID 463214).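 Note: antagonist potency against angiotensin II stimulated AT1 response.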 The format is functional.

The target of the next experiment is Beta-galactosidase (Escherichia coli, UniProt Q8VNN2). Nature of the experiment: PubChem AID 485352. The class given is functional.
Sequence of Beta-galactosidase (Q8VNN2 whole entry): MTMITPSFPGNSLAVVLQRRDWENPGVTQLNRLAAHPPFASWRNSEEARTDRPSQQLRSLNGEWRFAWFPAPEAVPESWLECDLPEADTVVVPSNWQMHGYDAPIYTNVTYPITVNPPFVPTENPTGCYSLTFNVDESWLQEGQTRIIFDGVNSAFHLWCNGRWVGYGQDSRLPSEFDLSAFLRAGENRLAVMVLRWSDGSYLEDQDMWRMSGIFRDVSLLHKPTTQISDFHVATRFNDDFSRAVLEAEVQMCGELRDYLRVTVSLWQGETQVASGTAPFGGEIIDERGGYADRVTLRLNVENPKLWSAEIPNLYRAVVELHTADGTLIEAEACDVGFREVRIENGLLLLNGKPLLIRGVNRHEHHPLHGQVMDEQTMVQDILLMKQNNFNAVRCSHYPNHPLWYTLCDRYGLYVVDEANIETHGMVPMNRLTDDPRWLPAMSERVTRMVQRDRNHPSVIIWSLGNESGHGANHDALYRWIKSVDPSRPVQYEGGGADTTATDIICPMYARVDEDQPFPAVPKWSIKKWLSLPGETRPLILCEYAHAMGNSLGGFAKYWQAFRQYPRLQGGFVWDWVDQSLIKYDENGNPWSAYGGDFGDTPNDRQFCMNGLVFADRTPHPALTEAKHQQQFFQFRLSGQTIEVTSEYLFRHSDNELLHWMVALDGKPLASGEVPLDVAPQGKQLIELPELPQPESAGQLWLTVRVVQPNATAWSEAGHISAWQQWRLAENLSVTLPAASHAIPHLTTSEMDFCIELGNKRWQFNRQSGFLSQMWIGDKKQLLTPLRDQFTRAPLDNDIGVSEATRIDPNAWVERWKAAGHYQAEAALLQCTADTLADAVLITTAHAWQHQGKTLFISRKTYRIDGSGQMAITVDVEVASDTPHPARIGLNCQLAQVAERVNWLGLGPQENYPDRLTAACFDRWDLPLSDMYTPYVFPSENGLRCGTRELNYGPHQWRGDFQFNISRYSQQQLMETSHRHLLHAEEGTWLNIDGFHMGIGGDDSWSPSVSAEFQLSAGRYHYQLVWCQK
Experiment [2] addresses Heat shock protein HSP 90-alpha (Homo sapiens, UniProt P07900). The format is functional, organism-based.
Experiment [3] deals with HEK293. The experiment can be described thus: cells. As to conditions: Homo sapiens.
Experiment [4] has as its target T2, Oxysterols receptor LXR-beta (Homo sapiens, UniProt P55055).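 Note: agonist activity at LXR measured by a cell-based luminescence readout across a dose range, run as a counterscreen for daf-12 agonists; HEK293 cells with Gal4-LXR fusion and GAL4-driven luciferase reporter; potency for activation of Gal4-LXR reporter so compounds are agonists.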
T2 sequence (P55055 whole entry): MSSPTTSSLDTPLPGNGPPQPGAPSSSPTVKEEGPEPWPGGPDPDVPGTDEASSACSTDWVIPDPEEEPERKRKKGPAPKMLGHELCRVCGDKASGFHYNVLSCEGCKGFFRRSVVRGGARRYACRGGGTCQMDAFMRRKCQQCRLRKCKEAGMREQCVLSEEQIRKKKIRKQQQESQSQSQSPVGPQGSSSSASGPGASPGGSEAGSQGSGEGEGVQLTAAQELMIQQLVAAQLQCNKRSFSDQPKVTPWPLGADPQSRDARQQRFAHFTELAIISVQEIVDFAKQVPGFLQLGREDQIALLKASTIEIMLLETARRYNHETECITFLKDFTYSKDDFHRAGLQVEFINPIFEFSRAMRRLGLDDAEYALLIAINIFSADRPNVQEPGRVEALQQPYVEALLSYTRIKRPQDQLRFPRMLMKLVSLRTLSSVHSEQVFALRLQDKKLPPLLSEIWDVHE
The class given is functional, cell-based.

The test system of experiment [5] is HEK293. The experiment can be described thus: cells. As to conditions: Homo sapiens. The source holds these as a separate data set.
A further experiment has as its system HeLa. Nature of the experiment: HeLa cell cytotoxicity, dose response, cytotoxicity control for MITF activator project, CellTiter-Glo luminescence, cherry-pick samples (AID 540259). The format is functional, cell-based. As to conditions: Homo sapiens. A general note: ATP-based viability assays read luminescence as a measure of living cells.
The test system of another experiment is Escherichia coli. The experiment can be described thus: microbe, parasite or virus in culture.
A short description of experiment [6]: cytotoxicity in HEK-293T cells, dose response, cytotoxicity control for BCR NF-kB inhibitor project, luminescence, B-cell screen hits (AID 489021).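 Note: HEK-293T cells carrying an NF-kB luciferase reporter; cells exposed to compound for about 14 hours before viability readout.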 The format is functional, cell-based.
Experiment [7] deals with Peroxisome proliferator-activated receptor gamma/Nuclear receptor coactivator 1 (Homo sapiens, UniProt P37231). The experiment can be described thus: TR-FRET dose response biochemical High Throughput Screening assay for agonists of the steroid receptor coactivator 1 (SRC-1) recruitment by the peroxisome proliferator-activated receptor gamma (PPAR gamma): non-selective agonists. [Related pubchem assays (depositor defined):AID1300, AID1808, AID504735, AID631]. The class given is protein assay.
Sequence of Peroxisome proliferator-activated receptor gamma/Nuclear receptor coactivator 1 (P37231 whole entry): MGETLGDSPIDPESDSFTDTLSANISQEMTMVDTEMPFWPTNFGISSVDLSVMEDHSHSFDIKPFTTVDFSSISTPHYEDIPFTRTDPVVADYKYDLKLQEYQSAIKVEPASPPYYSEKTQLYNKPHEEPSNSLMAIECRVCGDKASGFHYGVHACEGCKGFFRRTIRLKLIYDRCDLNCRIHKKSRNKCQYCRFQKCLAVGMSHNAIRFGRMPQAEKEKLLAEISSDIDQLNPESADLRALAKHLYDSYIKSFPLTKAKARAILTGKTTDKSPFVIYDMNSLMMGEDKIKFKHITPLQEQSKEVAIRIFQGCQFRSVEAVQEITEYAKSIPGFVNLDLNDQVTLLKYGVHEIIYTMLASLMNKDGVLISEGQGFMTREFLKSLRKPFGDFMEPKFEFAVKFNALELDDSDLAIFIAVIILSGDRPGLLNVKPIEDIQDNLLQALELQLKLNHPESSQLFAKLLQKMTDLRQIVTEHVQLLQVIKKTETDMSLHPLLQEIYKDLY
Sequence of Peroxisome proliferator-activated receptor gamma/Nuclear receptor coactivator 1 (Q15788 whole entry, further chain): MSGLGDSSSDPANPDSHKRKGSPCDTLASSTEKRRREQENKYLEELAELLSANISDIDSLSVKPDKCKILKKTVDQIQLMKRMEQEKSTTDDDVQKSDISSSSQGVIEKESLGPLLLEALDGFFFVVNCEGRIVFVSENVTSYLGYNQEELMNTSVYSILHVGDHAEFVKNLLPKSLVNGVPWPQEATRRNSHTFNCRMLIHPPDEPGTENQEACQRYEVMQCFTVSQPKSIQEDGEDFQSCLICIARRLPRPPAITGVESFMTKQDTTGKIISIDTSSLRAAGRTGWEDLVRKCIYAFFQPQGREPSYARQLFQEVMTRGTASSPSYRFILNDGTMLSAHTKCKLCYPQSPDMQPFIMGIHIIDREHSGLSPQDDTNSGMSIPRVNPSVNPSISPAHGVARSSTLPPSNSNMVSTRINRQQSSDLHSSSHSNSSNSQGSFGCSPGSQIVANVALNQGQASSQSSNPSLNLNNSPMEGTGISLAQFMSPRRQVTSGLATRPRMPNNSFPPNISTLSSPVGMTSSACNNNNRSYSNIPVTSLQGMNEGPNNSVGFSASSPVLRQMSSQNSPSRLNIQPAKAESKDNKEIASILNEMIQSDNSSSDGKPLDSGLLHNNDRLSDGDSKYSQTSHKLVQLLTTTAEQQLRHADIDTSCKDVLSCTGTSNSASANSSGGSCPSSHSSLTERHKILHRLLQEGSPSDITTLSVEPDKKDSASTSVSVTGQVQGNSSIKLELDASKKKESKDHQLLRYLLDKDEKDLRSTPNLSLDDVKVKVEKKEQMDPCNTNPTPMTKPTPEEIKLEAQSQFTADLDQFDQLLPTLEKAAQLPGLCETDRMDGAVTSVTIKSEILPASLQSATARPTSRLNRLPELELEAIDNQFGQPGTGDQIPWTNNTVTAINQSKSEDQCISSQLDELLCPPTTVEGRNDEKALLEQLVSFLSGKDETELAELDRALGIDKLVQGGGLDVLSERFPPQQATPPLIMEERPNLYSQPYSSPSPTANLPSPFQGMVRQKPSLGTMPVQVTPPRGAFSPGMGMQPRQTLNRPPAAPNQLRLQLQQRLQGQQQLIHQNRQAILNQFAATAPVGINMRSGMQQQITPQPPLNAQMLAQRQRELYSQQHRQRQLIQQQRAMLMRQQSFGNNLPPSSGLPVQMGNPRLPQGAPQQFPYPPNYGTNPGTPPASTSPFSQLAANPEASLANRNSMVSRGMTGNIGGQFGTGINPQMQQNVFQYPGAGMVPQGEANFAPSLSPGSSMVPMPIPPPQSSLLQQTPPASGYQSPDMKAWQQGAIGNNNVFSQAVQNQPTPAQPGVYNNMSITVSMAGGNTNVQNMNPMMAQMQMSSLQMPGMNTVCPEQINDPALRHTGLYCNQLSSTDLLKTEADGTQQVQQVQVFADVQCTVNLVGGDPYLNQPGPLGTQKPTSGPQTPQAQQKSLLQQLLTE

Experiment [8] has as its target Peroxisome proliferator-activated receptor gamma/Nuclear receptor coactivator 3 (Homo sapiens, UniProt P37231). Nature of the experiment: TR-FRET dose response biochemical High Throughput Screening assay for agonists of the steroid receptor coactivator 3 (SRC-3) recruitment by the peroxisome proliferator-activated receptor gamma (PPAR gamma): non-selective agonists. [Related pubchem assays: 1301 (Confirmation screen.), 1048 (Primary screen.)]. The format is functional. On the technique in general: Time-resolved FRET reads energy transfer from a long-lived donor to a nearby acceptor.

Experiment [9] concerns the target Peroxisome proliferator-activated receptor gamma/Nuclear receptor coactivator 2 (Homo sapiens, UniProt P37231). The experiment can be described thus: TR-FRET dose response biochemical High Throughput Screening assay for agonists of the steroid receptor coactivator 2 (SRC-2) recruitment by the peroxisome proliferator-activated receptor gamma (PPAR gamma): non-selective agonists. [Related pubchem assays: 1297, 1032 ]. The format is functional.

A further experiment deals with T3, Protein RecA (Mycobacterium tuberculosis, UniProt P9WHJ3).
T3 sequence (P9WHJ3 whole entry): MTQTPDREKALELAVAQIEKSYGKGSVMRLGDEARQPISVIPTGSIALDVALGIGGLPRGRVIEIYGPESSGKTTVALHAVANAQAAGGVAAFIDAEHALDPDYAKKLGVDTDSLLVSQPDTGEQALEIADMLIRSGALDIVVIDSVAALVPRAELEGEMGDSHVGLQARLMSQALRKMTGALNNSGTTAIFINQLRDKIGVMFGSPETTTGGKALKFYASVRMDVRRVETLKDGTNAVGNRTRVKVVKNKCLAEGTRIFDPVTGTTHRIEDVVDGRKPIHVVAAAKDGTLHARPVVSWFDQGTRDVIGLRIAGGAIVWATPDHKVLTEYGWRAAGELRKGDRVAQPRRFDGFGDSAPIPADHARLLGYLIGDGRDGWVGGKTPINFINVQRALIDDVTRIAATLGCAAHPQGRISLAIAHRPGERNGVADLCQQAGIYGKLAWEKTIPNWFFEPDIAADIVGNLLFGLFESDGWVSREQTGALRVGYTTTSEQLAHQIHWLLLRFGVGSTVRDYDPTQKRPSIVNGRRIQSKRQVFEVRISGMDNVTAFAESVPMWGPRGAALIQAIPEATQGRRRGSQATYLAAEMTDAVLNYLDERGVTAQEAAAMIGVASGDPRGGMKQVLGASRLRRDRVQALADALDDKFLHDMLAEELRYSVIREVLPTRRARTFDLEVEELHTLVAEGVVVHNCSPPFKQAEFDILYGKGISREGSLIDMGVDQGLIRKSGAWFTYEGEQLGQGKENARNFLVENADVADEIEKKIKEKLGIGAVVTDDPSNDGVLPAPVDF
Nature of the experiment: Fluorescence Cell-Free Homogeneous Dose Retest to Identify Inhibitors of RecA-Intein Splicing Activity. [Related pubchem assays (depositor defined):AID2097, AID2223, AID489010, AID492950]. The class given is functional.

The next experiment is described as follows: cells. The format is functional.
Experiment [10] is described as follows: microbe, parasite or virus in culture. The format is functional. As to conditions: Mycobacterium tuberculosis.
Experiment [11] addresses T4, Microphthalmia-associated transcription factor (Homo sapiens, UniProt O75030).
T4 sequence (O75030 whole entry): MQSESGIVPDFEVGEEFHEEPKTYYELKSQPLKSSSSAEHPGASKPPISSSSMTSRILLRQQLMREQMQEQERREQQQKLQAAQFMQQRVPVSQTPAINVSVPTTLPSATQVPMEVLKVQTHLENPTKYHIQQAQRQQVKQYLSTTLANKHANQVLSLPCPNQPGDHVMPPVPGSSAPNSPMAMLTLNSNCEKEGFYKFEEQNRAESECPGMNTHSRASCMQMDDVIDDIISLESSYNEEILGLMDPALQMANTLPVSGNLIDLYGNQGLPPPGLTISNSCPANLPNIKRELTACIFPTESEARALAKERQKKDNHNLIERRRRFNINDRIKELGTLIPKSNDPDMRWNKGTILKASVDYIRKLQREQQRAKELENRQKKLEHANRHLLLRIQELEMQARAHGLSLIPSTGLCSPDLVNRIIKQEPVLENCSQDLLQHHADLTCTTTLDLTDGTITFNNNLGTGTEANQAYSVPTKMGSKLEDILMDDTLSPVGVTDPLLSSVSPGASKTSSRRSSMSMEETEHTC
The experiment can be described thus: TRPM1 promoter luciferase signal decrease, dose response, MITF inhibitor project, cell-based, SK-MEL-5, cherry-picked, set 3 (AID 493073).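 Note: SK-MEL-5 melanoma cells with luciferase driven by the MITF target TRPM1 promoter.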 The class given is functional.

In experiment [12] the target is Induced myeloid leukemia cell differentiation protein Mcl-1 (Homo sapiens, UniProt Q07820). The format is functional.
The target in experiment [13] is T5, Replicative DNA helicase DnaB (Mycobacterium tuberculosis, UniProt P9WMR3).
T5 sequence (P9WMR3 whole entry): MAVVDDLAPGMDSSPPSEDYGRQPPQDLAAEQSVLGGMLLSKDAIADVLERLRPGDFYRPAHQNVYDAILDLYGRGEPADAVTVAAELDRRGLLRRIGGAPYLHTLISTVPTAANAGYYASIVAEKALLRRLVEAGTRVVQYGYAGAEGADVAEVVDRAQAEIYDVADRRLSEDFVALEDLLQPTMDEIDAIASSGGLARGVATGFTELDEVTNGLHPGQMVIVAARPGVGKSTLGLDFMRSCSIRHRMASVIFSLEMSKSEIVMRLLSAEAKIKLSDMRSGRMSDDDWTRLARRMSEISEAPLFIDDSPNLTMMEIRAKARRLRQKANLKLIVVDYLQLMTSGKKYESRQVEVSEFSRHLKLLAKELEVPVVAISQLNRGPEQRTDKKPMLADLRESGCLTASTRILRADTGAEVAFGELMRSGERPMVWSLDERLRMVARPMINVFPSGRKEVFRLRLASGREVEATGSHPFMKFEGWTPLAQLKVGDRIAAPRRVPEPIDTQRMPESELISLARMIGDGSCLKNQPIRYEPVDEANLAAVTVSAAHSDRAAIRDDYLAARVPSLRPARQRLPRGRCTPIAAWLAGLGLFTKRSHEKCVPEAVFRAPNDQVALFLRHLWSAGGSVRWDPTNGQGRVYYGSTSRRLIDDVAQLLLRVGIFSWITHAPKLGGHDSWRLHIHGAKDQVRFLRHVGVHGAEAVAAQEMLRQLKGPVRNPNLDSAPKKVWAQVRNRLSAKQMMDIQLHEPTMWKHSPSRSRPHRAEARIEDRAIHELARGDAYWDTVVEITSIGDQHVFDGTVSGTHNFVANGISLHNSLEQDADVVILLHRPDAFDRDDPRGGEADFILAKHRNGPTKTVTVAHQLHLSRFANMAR
Nature of the experiment: DnaB intein splicing inhibitors, dose response, biochemical, cell-free fluorescence (AID 449749). The format is functional.

Experiment [14] can be described thus: THP-1 cell cytotoxicity, dose response, cytotoxicity control for non-replicating M. tuberculosis project (AID 489025). The format is functional.
A short description of experiment [15]: HepG2 cell cytotoxicity, dose response, cytotoxicity control for non-replicating M. tuberculosis project (AID 489018). As to conditions: Mycobacterium tuberculosis. The format is functional.

Sequence of Peroxisome proliferator-activated receptor gamma/Nuclear receptor coactivator 2 (P37231 whole entry): as the sequence (P37231 whole entry) above
Sequence of Peroxisome proliferator-activated receptor gamma/Nuclear receptor coactivator 2 (Q15596 whole entry, further chain): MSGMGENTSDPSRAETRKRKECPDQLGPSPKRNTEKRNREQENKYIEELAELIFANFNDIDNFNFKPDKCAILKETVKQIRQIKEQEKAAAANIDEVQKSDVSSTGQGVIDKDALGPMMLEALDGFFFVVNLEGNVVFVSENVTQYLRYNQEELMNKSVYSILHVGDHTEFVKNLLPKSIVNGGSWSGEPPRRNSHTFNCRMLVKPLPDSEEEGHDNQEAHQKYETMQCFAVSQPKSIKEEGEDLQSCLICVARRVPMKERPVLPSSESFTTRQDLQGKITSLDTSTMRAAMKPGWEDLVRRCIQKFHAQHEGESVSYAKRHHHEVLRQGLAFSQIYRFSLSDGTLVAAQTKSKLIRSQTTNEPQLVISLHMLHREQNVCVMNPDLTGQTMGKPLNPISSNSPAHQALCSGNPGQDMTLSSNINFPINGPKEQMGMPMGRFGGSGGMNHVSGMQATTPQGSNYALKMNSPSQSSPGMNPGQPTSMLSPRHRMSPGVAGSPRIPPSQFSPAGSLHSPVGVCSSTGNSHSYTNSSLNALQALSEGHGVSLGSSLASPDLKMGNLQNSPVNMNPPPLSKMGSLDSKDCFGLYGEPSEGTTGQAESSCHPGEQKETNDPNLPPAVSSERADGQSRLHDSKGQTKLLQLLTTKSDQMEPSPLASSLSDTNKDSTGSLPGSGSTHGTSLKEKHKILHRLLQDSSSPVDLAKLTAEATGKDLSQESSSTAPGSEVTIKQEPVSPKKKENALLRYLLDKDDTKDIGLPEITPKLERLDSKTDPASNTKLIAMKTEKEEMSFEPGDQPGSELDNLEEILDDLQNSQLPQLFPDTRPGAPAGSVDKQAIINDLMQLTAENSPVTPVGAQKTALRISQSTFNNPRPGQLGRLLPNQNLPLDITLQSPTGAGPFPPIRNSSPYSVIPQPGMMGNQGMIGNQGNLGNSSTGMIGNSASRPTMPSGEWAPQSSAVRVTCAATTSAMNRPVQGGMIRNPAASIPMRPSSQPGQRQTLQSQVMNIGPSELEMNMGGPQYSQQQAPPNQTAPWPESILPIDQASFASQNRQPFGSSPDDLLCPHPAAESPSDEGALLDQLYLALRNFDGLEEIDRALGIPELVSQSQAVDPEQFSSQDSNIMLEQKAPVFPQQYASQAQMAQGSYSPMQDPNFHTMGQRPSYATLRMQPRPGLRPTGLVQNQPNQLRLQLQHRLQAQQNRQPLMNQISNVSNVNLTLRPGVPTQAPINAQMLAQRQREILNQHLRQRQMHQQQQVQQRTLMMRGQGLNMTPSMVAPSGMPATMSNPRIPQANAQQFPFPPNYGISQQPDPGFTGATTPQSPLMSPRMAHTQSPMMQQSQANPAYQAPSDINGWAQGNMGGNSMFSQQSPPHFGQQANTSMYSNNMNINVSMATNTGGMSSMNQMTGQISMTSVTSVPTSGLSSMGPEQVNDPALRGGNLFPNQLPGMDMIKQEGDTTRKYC

Consider `COc1cccc(/C=C/c2ccc3cccc(O)c3n2)c1`, for which the IC50 in experiment [1] was 15.1 µM (active). Further, the EC50 at Beta-galactosidase was > 40 µM (inactive); with HEK293 [3], > 0.0091 µM (active); in [4], > 67.5 µM (inactive); in the experiment with HEK293 [5], > 59.7 µM (inactive). The AC50 in experiment [2] is 24.4 µM (active).

Consider `COc1ccc2[nH]c(-c3ccccc3)cc2c1`, for which the AC50 in the experiment with HeLa was 55.1 µM (active).

As to `CC(C(=O)NC1CCCC1)N1CCN(S(=O)(=O)c2ccc(C(C)(C)C)cc2)CC1` (stereo unspecified), in the experiment with Escherichia coli, the half-maximal activity concentration (AC50) was 70.4 µM (active).

Regarding `Cn1c(=O)cc(SCC(=O)N2CCCC2)c2cc(Cl)ccc21`, in experiment [6], the IC50 is > 80 µM (inactive). The EC50 was > 79.4 µM (inactive) in [7], > 79.4 µM (not active) in experiment [8] and > 79.4 µM (not active) in experiment [9].

Take `CN(C1=NC(=O)/C(=C2\C(=O)Nc3ccccc32)S1)c1ccc(O)cc1`: in the experiment with HeLa, the AC50 was 45.4 µM (active).

For `Cc1ccc(CNC(=O)C2CCCN2C(=O)Nc2ccccc2)cc1` (stereo unspecified), the concentration at half-maximal activity (AC50) in the experiment on Escherichia coli was 33.2 µM (active).

As to `O=C1Nc2ccc(Br)cc2/C1=C/C(=O)c1ccc2c(c1)OCO2`, the EC50 was 1.46 µM (active) at Protein RecA, > 59.6 µM (inactive) with HEK293 [3] and > 59.6 µM (inactive) in the experiment with HEK293 [5]. The IC50 was 15.2 µM (active) in “cells” and 1.29 µM (active) in experiment [12]. Further, the CC50 in experiment [10] was 32.2 µM (active); in experiment [14], 11.9 µM (active); in [15], 18.9 µM (active). Besides, the AC50 in [11] is 25.5 µM (active); in experiment [2], 2.17 µM (active); in experiment [13] it was 36.3 µM (active).

As for `COc1ccc(OC2OC3COC(c4ccco4)OC3C(O)C2NC(C)=O)cc1` (stereo unspecified), the AC50 in the experiment on Escherichia coli was 32.1 µM (active).
